In the first test the test system is AR / CBP ternary complex. The test is described as follows: Ternary complex formation assay (sandwich ELISA, AR capture / CBP detection) in VCaP cell lysates. The format is cell-based. Conditions: 1.5 hours treatment, sandwich ELISA (AR capture, CBP or p300 detection). In short, it runs like this:
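Anti-AR (AR 441)-coated plates capture AR from lysates of VCaP cells grown ≥3 days at 50K/well in 5% charcoal-stripped FBS, dosed with bifunctional for 1.5 h and lysed 30 min at 4 °C. Co-captured CBP/p300 is probed with rabbit mAb and HRP anti-rabbit, then QuantaRed fluorescence (570/585) is read at 0, 5 and 15 min.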
In turn, `COc1cc(OC2C(C)(C)C(NC(=O)c3ccc(N4CC5(CCC(N6CCC(n7nc(N8CCCc9cc(-c%10cncs%10)c(C(F)F)cc98)c8c7CCN(C(C)=O)C8)CC6)CC5)C4)cc3)C2(C)C)ccc1C#N` (centres unmarked) [Compound 428, 4-[7-[4-[5-acetyl-3-[7-(difluoromethyl)-6-thiazol-5-yl-3,4-dihydro-2H-quinolin-1-yl]-6,7-dihydro-4H-pyrazolo[4,3-c]pyridin-1-yl]-1-piperidyl]-2-azaspiro[3.5]nonan-2-yl]-N-[3-(4-cyano-3-methoxy-phenoxy)-2,2,4,4-tetramethyl-cyclobutyl]benzamide] showed an EC50 below 1 nM.
As for `CC(=O)N1CCc2c(c(N3CCCc4cc(-c5cnn(C)c5)c(C(F)F)cc43)nn2C2CCC(OC3CN(c4ncc(C(=O)NC5C(C)(C)C(Oc6ccc(C#N)c(Cl)c6)C5(C)C)cn4)C3)CC2)C1` (centres unmarked) [Compound 340, 2-[3-[4-[5-acetyl-3-[7-(difluoromethyl)-6-(1-methylpyrazol-4-yl)-3,4-dihydro-2H-quinolin-1-yl]-6,7-dihydro-4H-pyrazolo[4,3-c]pyridin-1-yl]cyclohexoxy]azetidin-1-yl]-N-[3-(3-chloro-4-cyano-phenoxy)-2,2,4,4-tetramethyl-cyclobutyl]pyrimidine-5-carboxamide], the EC50 is below 1 nM.
The molecule `CC(=O)N1CCc2c(c(N3CCCc4cc(-c5cnn(C)c5)c(C(F)F)cc43)nn2CCOc2ncc(C(=O)NC3C(C)(C)C(Oc4ccc(C#N)c(Cl)c4)C3(C)C)cn2)C1` (centres unmarked) [Compound 46, 2-[2-[5-acetyl-3-[7-(difluoromethyl)-6-(1-methylpyrazol-4-yl)-3,4-dihydro-2H-quinolin-1-yl]-6,7-dihydro-4H-pyrazolo[4,3-c]pyridin-1-yl]ethoxy]-N-[3-(3-chloro-4-cyano-phenoxy)-2,2,4,4-tetramethyl-cyclobutyl]pyrimidine-5-carboxamide] returned an EC50 below 1 nM.
On the same count and under the same terms, the same measure for `CC(=O)N1CCc2c(c(N3CCCc4cc(-c5cnn(C)c5)c(C(F)F)cc43)nn2C2CCC3(CC2)CCN(c2ncc(C(=O)NC4C(C)(C)C(Oc5ccc(C#N)c(Cl)c5)C4(C)C)cn2)C3)C1` (centres unmarked) [Compound 407, 2-[8-[5-acetyl-3-[7-(difluoromethyl)-6-(1-methylpyrazol-4-yl)-3,4-dihydro-2H-quinolin-1-yl]-6,7-dihydro-4H-pyrazolo[4,3-c]pyridin-1-yl]-2-azaspiro[4.5]decan-2-yl]-N-[3-(3-chloro-4-cyano-phenoxy)-2,2,4,4-tetramethyl-cyclobutyl]pyrimidine-5-carboxamide]: 10 to 100 nM; for `COc1cc(OC2C(C)(C)C(NC(=O)c3ccc(N4CC(C)C(CN5CCC(n6nc(N7CCCc8cc(C#N)c(C)cc87)c7c6CCN(C(C)=O)C7)CC5)C(C)C4)cc3)C2(C)C)ccc1C#N` (centres unmarked) [Compound 457, 4-[4-[[4-[5-acetyl-3-(6-cyano-7-methyl-3,4-dihydro-2H-quinolin-1-yl)-6,7-dihydro-4H-pyrazolo[4,3-c]pyridin-1-yl]-1-piperidyl]methyl]-3,5-dimethyl-1-piperidyl]-N-[3-(4-cyano-3-methoxy-phenoxy)-2,2,4,4-tetramethyl-cyclobutyl]benzamide]: below 1 nM.

In a further test the test system is VCaP cells. Kind of test: VCaP growth inhibition assay. It is filed as cell-based. Conditions: 30 pM R1881, 9 days, CTG. The method, then:
VCaP cells (ATCC Cat #CRL-2876) are plated at 1×10^4 cells per well of a white plastic 96-well cluster plate (Thermo Scientific Nunc Cat #165306) in 100 uL phenol red-free DMEM (Gibco Cat #21063-029) media with 5% CSS (Omega Scientific Cat #FB-04). Cluster plates are returned to the incubator (37*C/5% CO2) for 72 hours prior to treatment. Just prior to treatment, 100 μL of phenol red-free DMEM/5% CSS and […] R1881 (Sigma Cat #R0908-10 mg) was added to each well of the cluster plates (Final R1881 concentration=30 pM). Compounds (200×) were added to each well in a volume of 1 uL, with serial dilutions (1:5) from 20 uM to 2 pM (final concentrations in well are 100 nM to 10 fM). Cluster plates are returned to the incubator for 9 days.
After the 9-day treatment period, media was removed from the cluster plates by inversion and 100 uL room temperature CTG reagent (Promega Cat #G7573) is added to each well. The cluster plates are placed on a shaker and incubated at room temperature for 20 minutes. Following this shaking/incubation, cluster plates are read on a luminometer (BMG ClarioStar). IC50 values are obtained by graphing the RLU data vs. compound concentration with nonlinear regression 4-parameter logistic curves (GraphPad Prism).
In turn, `CC(=O)N1CCc2c(c(Nc3ccc(-c4cnn(C)c4)cc3F)nn2C2CN(CCN3CCN(c4ncc(C(=O)NC5C(C)(C)C(Oc6ccc(C#N)c(Cl)c6)C5(C)C)cn4)CC3)C2)C1` (centres unmarked) [Compound 164, 2-[4-[2-[3-[5-acetyl-3-[2-fluoro-4-(1-methylpyrazol-4-yl)anilino]-6,7-dihydro-4H-pyrazolo[4,3-c]pyridin-1-yl]azetidin-1-yl]ethyl]piperazin-1-yl]-N-[3-(3-chloro-4-cyano-phenoxy)-2,2,4,4-tetramethyl-cyclobutyl]pyrimidine-5-carboxamide] came in with an IC50 of at most 0.1 nM.
Still for that read-out and setting: next, `CC(=O)N1CCc2c(c(Nc3ccc(-c4cnn(C)c4)cc3F)nn2C2CCN(CCC3CCN(c4ncc(C(=O)NC5C(C)(C)C(Oc6ccc(C#N)c(Cl)c6)C5(C)C)cn4)CC3)CC2)C1` (centres unmarked) [Compound 168, 2-[4-[2-[4-[5-acetyl-3-[2-fluoro-4-(1-methylpyrazol-4-yl)anilino]-6,7-dihydro-4H-pyrazolo[4,3-c]pyridin-1-yl]-1-piperidyl]ethyl]-1-piperidyl]-N-[3-(3-chloro-4-cyano-phenoxy)-2,2,4,4-tetramethyl-cyclobutyl]pyrimidine-5-carboxamide]: 0.1 to 1 nM.
Still for that read-out and setting: next, `COc1cc(OC2C(C)(C)C(NC(=O)c3ccc(N4CCC5(CC4)CC(Oc4ccc(-c6cc7c(cc6C(F)F)N(c6nn(C8CCOCC8)c8c6CN(C(C)=O)CC8)CCC7)cn4)C5)cc3)C2(C)C)ccc1C#N` (centres unmarked) [Compound 306, 4-[2-[[5-[1-(5-acetyl-1-tetrahydropyran-4-yl-6,7-dihydro-4H-pyrazolo[4,3-c]pyridin-3-yl)-7-(difluoromethyl)-3,4-dihydro-2H-quinolin-6-yl]-2-pyridyl]oxy]-7-azaspiro[3.5]nonan-7-yl]-N-[3-(4-cyano-3-methoxy-phenoxy)-2,2,4,4-tetramethyl-cyclobutyl]benzamide]: 1 to 100 nM; `CC(=O)N1CCc2c(c(N3CCCc4cc(-c5cnn(C)c5)c(C(F)F)cc43)nn2C2CCN(CCOCc3ncc(C(=O)NC4C(C)(C)C(Oc5ccc(C#N)c(Cl)c5)C4(C)C)cn3)CC2)C1` (centres unmarked) [Compound 88, 2-[2-[4-[5-acetyl-3-[7-(difluoromethyl)-6-(1-methylpyrazol-4-yl)-3,4-dihydro-2H-quinolin-1-yl]-6,7-dihydro-4H-pyrazolo[4,3-c]pyridin-1-yl]-1-piperidyl]ethoxymethyl]-N-[3-(3-chloro-4-cyano-phenoxy)-2,2,4,4-tetramethyl-cyclobutyl]pyrimidine-5-carboxamide]: 0.1 to 1 nM.
On to `COc1cc(OC2C(C)(C)C(NC(=O)c3ccc(N4CCC5(CC4)CCN(c4ccc(-c6cc7cccc(-c8nn(C9CCOCC9)c9c8CN(C(C)=O)CC9)c7cn6)cn4)CC5)cc3)C2(C)C)ccc1C#N` (centres unmarked) [Compound 266, 4-[3-[5-[8-(5-acetyl-1-tetrahydropyran-4-yl-6,7-dihydro-4H-pyrazolo[4,3-c]pyridin-3-yl)-3-isoquinolyl]-2-pyridyl]-3,9-diazaspiro[5.5]undecan-9-yl]-N-[3-(4-cyano-3-methoxy-phenoxy)-2,2,4,4-tetramethyl-cyclobutyl]benzamide], for which the IC50 lay in the range of 0.1 to 1 nM.
In turn, `COc1cc(OC2C(C)(C)C(NC(=O)c3ccc(N4CCC(N5CCC(n6cc(-c7cc8cccc(-c9nn(C%10CCOCC%10)c%10c9CN(C(C)=O)CC%10)c8cn7)cn6)CC5)CC4)cc3)C2(C)C)ccc1C#N` (centres unmarked) [Compound 270, 4-[4-[4-[4-[8-(5-acetyl-1-tetrahydropyran-4-yl-6,7-dihydro-4H-pyrazolo[4,3-c]pyridin-3-yl)-3-isoquinolyl]pyrazol-1-yl]-1-piperidyl]-1-piperidyl]-N-[3-(4-cyano-3-methoxy-phenoxy)-2,2,4,4-tetramethylcyclobutyl]benzamide] had an IC50 of 0.1 to 1 nM.
Same read-out and setting: the same measure for `CC(=O)N1CCc2c(c(Nc3ccc(-c4cnn(C)c4)cc3F)nn2C2CN(C(=O)CN3CCN(c4ncc(C(=O)NC5C(C)(C)C(Oc6ccc(C#N)c(Cl)c6)C5(C)C)cn4)CC3)C2)C1` (centres unmarked) [Compound 165, 2-[4-[2-[3-[5-acetyl-3-[2-fluoro-4-(1-methylpyrazol-4-yl)anilino]-6,7-dihydro-4H-pyrazolo[4,3-c]pyridin-1-yl]azetidin-1-yl]-2-oxo-ethyl]piperazin-1-yl]-N-[3-(3-chloro-4-cyano-phenoxy)-2,2,4,4-tetramethyl-cyclobutyl]pyrimidine-5-carboxamide]: at most 0.1 nM; for `CC(=O)N1CCc2c(c(N3CCCc4cc(-c5cnn(C)c5)c(C(F)F)cc43)nn2C2CCC3(CC2)CCN(c2ccc4c(n2)CN(C2C(C)(C)C(Oc5ccc(C#N)c(Cl)c5)C2(C)C)C4=O)CC3)C1` (centres unmarked) [Compound 298, 4-[3-[2-[9-[5-acetyl-3-[7-(difluoromethyl)-6-(1-methylpyrazol-4-yl)-3,4-dihydro-2H-quinolin-1-yl]-6,7-dihydro-4H-pyrazolo[4,3-c]pyridin-1-yl]-3-azaspiro [5.5]undecan-3-yl]-5-oxo-7H-pyrrolo[3,4-b]pyridin-6-yl]-2,2,4,4-tetramethyl-cyclobutoxy]-2-chloro-benzonitrile]: above 100 nM.
In turn, `CC(=O)N1CCc2c(c(N3CCCc4cc(-c5cnn(C)c5)c(C(F)F)cc43)nn2CCN2CCN(c3ncc(C(=O)NC4C(C)(C)C(Oc5ccc(C#N)c(Cl)c5)C4(C)C)cn3)CC2)C1` (centres unmarked) [Compound 52, 2-[4-[2-[5-acetyl-3-[7-(difluoromethyl)-6-(1-methylpyrazol-4-yl)-3,4-dihydro-2H-quinolin-1-yl]-6,7-dihydro-4H-pyrazolo[4,3-c]pyridin-1-yl]ethyl]piperazin-1-yl]-N-[3-(3-chloro-4-cyano-phenoxy)-2,2,4,4-tetramethyl-cyclobutyl]pyrimidine-5-carboxamide] registered an IC50 of 0.1 to 1 nM.

Broadly, the EC50 is the midpoint of the concentration-response curve. Higher therefore signals lower potency in that assay. For orientation: IC50 means the concentration that gives 50% inhibition. A low value points to greater potency in that assay.
